{"source": "patent US9404080B2", "about": "“Human taste cells capable of continuous proliferation” (B.R.A.I.N. BIOTECHNOLOGY RESEARCH AND INFORMATION NETWORK AG, priority 2012, dated 2016)", "key": {"[1]": {"system": "human taste cells BR-HTC8", "experiment": "Fluo-4 fluorescent calcium imaging assay in BR-HTC8; for Fluo-4 assay BR-HTC8: key: + indicates that the analysis was successful and that the mRNA was detected by RT-PCR or that stimulation of human taste cells with the respective taste molecule resulted in a dose-dependent increase in intracellular calcium or decrease in cellular membrane potential", "type": "cell-based", "experimental": "Before the assay, cells are maintained in HTC medium for at least 48 hours as described in Example 1. Cells are then trypsinized with accutase (e.g. PAA, L11-007) or TrypLE (e.g. Gibco, 12563) and seeded into poly-D-lysine coated 96-well assay plates (e.g. Corning) at a density of 15,000 cells/well in 100 μl HTC medium.\nAfter 24 hours, the cells (still in 100 μl medium) are stained by addition of 100 μl of Fluo-4 staining solution, which consists of KH buffer (10 mM HEPES pH7.4 containing 118 mM NaCl, 4.7 mM KCl, 4.2 mM NaHCO3, 1.2 mM KH2PO4, 1.2 mM MgSO4, 1.3 mM CaCl2) containing 4 μM Fluo-4 (Molecular Probes) and incubation for 1 hour at 37° C. Final Fluo-4 concentration in the staining solution/medium mixture is 2 μM. Staining solution is then replaced by 80 μl KH-buffer per well and plates are transferred into a fluorescence microplate reader to monitor changes in Ca^2+-dependent fluorescence (excitation 488 nm, emission 530 nm) after the addition of 20 μl KH-buffer supplemented with the test molecule under investigation. The test molecule was added 16 seconds after starting the scan and baseline recording, mixed twice, and then recording continued for additional 44 seconds. Data points of a total of 18 reads were collected. Data analysis/Data recording—Calcium mobilization was measured as the change of peak fluorescence (ΔF) over the baseline level (F). Data were expressed as the mean S.E. of the ΔF/F value of replicated independent samples. Data analysis was done with software provided by the manufacturer of the microplate reader (e.g. Molecular Devices).\n(§1) To test, whether stimulation of human taste cells with these taste molecules leads to changes in intracellular calcium the Fluo-4 fluorescent calcium imaging assay was performed as described above. Non-taste cells including HEK293 cells and non-lingual, proliferating primary cells isolated from the oral cavity served as a control and were treated equally throughout the procedure. Changes in Ca^2+-dependent Fluo-4 fluorescence were recorded on a Molecular Devices Fluorescence microplate reader. Measurement was started by addition of increasing concentrations of the taste molecules in KH-buffer to the cells. KH-buffer served as negative control and KH-buffer containing 1 μM ionomycin served as a positive control. […] Calcium signals for each test molecule are depicted as Relative Fluorescence Units (RFU), which means that calcium mobilization in response to taste molecules was calculated dF/F0, with dF is (peak fluorescence F1−baseline fluorescence F0). […] Data were obtained from several independent experiments and performed in triplicates.\nIn order to perform to the Fluo-4 fluorescent calcium imaging experiment in the absence of extracellular Ca^2+ the procedure was conducted as described above, however, the KH-buffer was prepared without addition of Ca^2+. Measurement was started by addition of increasing concentrations of the taste molecules in KH-buffer without Ca^2+ to the cells. KH-buffer without Ca^2+ served as negative control and KH-buffer without Ca^2+ containing 1 μM ionomycin served as a positive control.\nTo test, whether stimulation of human taste cells with oxytocin leads to changes in intracellular calcium the Fluo-4 fluorescent calcium imaging assay was performed as described above in Example 5. Briefly, the human taste cells were seeded in 96-well plates and stained with 2 μM of the calcium-sensitive fluorescence dye Fluo4 in HTC/KH buffer medium for one hour at 37° C. with subsequent replacement of the staining solution with KH-buffer. Non-taste cells including HEK293 cells and non-lingual, proliferating primary cells isolated from the oral cavity served as a control and were treated equally throughout the procedure. Changes in Ca^2+-dependent Fluo-4 fluorescence were recorded on a Molecular Devices Fluorescence microplate reader."}, "[2]": {"system": "human taste cells BR-HTC8", "experiment": "FLIPR fluorescent membrane potential (FMP) imaging assay in BR-HTC8", "type": "cell-based", "conditions": "BR-HTC8, increasing concentrations in KH-buffer", "experimental": "This cell depolarization was measured by using voltage-sensitive dyes including FLIPR fluorescent membrane potential (FMP) dye (Molecular Devices R8123). Before the assay, cells were maintained in HTC medium for at least 48 hours as described above in Example 1. Cells were then trypsinized with accutase (e.g. PAA, L11-007) or TrypLE (e.g. Gibco, 12563) and seeded into poly-D-lysine coated 96-well assay plates (Corning) at a density of 15,000 cells/well in […].\nAfter 24 hours, medium was removed and the cells are washed once with 100 μl KH buffer (10 mM HEPES pH7.4 containing 118 mM NaCl, 4.7 mM KCl, 4.2 mM NaHCO3, 1.2 mM KH2PO4, 1.2 mM MgSO4, 1.3 mM CaCl2) and then stained with 200 μl KH buffer containing FLIPR FMP dye according instructions of the manufacturer […] and incubation for 2 hours at 37° C. The plates were then transferred into a fluorescence microplate reader to monitor changes in membrane potential-dependent fluorescence (excitation 530 nm, emission 565 nm) after the addition of 50 μl KH-buffer supplemented with the test molecule under investigation. The test molecule was added 16 seconds after starting the scan and baseline recording, mixed twice, and then recording continued for additional 74 seconds. Data points of a total of 35 reads were collected.\nData analysis/Data recording—Changes of the membrane potential was measured as the change of peak fluorescence (ΔF) over the baseline level (F). Data were expressed as the mean S.E. of the ΔF/F value of replicated independent samples. Data analysis was done with software provided by the manufacturer of the microplate reader (Molecular Devices).\n(§2) To test, whether stimulation of human taste cells with taste molecules leads to changes in cellular membrane potential the FLIPR fluorescent membrane potential assay was performed as described above. Non-taste cells including HEK293 cells and non-lingual, proliferating primary cells isolated from the oral cavity served as a control and were treated equally throughout the procedure. Changes in membrane potential were recorded on a Molecular Devices Fluorescence microplate reader. Measurement was started by addition of increasing concentrations of the taste molecules in KH-buffer to the cells. KH-buffer served as negative control and KH-buffer containing 4 μM FCCP (e.g. Sigma, C2920) served as a positive control. […] Data were obtained from several independent experiments and performed in triplicates.\nas §2, with “This cell depolarization can be measured by using voltage-sensitive dyes including FLIPR fluorescent membrane potential (FMP) dye (Molecular Devices R8123) as described above in Example 6. To” for “To”, “oxytocin” for “taste molecules”, “oxytocin” for “the taste molecules”"}, "[3]": {"system": "Non-taste cells including HEK293 cells, Cal33 cells, and non-lingual, proliferating primary cells isolated from the oral cavity", "experiment": "Fluo-4 fluorescent calcium imaging assay in non-taste control cells", "type": "cell-based, human", "experimental": "Briefly, human taste cells were seeded in 96-well plates and stained with Fluo4-AM. Non-taste cells including HEK293 cells, Cal33 cells, and non-lingual, proliferating primary cells isolated from the oral cavity served as a control. Changes in Ca^2+-dependent Fluo-4 fluorescence were recorded on a Molecular Devices fluorescence microplate reader. Measurement was started by addition of increasing concentrations of the taste molecules. […] Calcium signals for each test molecule are depicted as relative fluorescence units (RFU).\nas §1"}, "BR-HTC38 cells": {"system": "BR-HTC38 cells", "experiment": "Fluo-4 fluorescent calcium imaging assay in TAS2R38-transduced BR-HTC38", "type": "cell-based, human", "conditions": "BR-HTC38 (TAS2R38 expressed) vs BR-HTC8", "experimental": "Changes in Ca^2+-dependent Fluo-4 fluorescence were recorded on a Molecular Devices fluorescence microplate reader. Measurement was started by addition of increasing concentrations of the taste molecules in KH-buffer to the cells. KH-buffer served as negative control and KH-buffer containing 1 μM ionomycin served as a positive control. […] Calcium signals for each test molecule are depicted as Relative Fluorescence Units (RFU), which means that calcium mobilization in response to taste molecules was calculated dF/F0, with dF is (peak fluorescence F1−baseline fluorescence F0). […] Data were obtained from several independent experiments and performed in triplicates."}}, "note": "“Also recorded” adds a separate entry of the source."}
{"compound": "OCc1ccccc1O[C@@H]1O[C@H](CO)[C@@H](O)[C@H](O)[C@H]1O", "note": "[Salicin]", "values": [{"measurement": "change of Fluo4-fluorescence / intracellular calcium on addition of the test molecule", "setting": "[1]; BR-HTC8, increasing concentrations in KH-buffer with Ca2+", "value": "dose-dependent increase of Fluo4-fluorescence"}, {"measurement": "Fluo-4 calcium response in the absence of extracellular Ca2+", "setting": "[1]; KH-buffer without Ca2+, BR-HTC8, molecule alone", "value": "increase of intracellular calcium; also recorded: dose-dependent increase of Fluo4-fluorescence"}, {"measurement": "Fluo-4 assay BR-HTC8", "setting": "[1]; dose-dependent increase in intracellular calcium on stimulation with the cognate bitter molecule of the TAS2R named in the row", "value": "+"}, {"measurement": "change of cellular membrane potential (FLIPR FMP dye fluorescence) on addition of the test molecule", "setting": "[2]", "value": "did not elicit significant changes in cellular membrane potential"}, {"measurement": "increase of Fluo4-fluorescence in control cells", "setting": "[3]", "value": "not in control cells"}, {"measurement": "dose-dependent Fluo-4 calcium response in BR-HTC38 compared with parental BR-HTC8", "setting": "BR-HTC38 cells", "value": "enhanced"}]}
